Series [1] deals with DU-145 (hormone-insensitive prostate cancer). Kind of series: Sulforhodamine B cytotoxicity assay, DU-145. The note with it: Table 1; 72 h; average ± SD. The series is classed as cell-based, human. The procedure:
The 12 novel 1-derivatives 9a-l were evaluated for in vitro antiproliferative activity against four human tumor cell lines, KB (nasopharyngeal), A-549 (lung), DU-145 (prostate), and KBvin (MDR KB subline), by using a sulforhodamine B colorimetric assay with triplicate experiments.^30 Compounds 1 and 3 were used as controls.
The human tumor cell lines used in this manuscript were A-549 (lung carcinoma), MDA-MB-231 (triple-negative breast cancer), DU-145 (hormone-insensitive prostate cancer), KB (originally isolated from epidermoid carcinoma of the nasopharynx), KBvin (vincristine-resistant KB subline), and HCT116 (colorectal adenocarcinoma). These cell lines were obtained from the Lineberger Comprehensive Cancer Center (UNC-CH) or from ATCC (Manassas, Va.), except KBvin, which was a generous gift of Professor Y.-C. Cheng (Yale University). All cell lines were maintained and assayed in RPMI-1640 medium containing 2 mM L-glutamine and 25 mM HEPES (HyClone), supplemented with 10% heat-inactivated fetal bovine serum (HyClone), 100 μg/mL streptomycin, 100 IU/mL penicillin, and 0.25 μg/mL amphotericin B (Cellgro) in a humidified atmosphere containing 5% CO2 in air. Compound stock solutions were prepared at 10 mM in DMSO and diluted with culture medium with the final DMSO concentration ≦0.01% (v/v), a concentration without effect on cell growth. The 4-6×10^3 cells/well were cultured for 72 h with various concentrations of test compounds in 96-well plate at 37° C. […] Each assay was performed in triplicate with duplicated samples.

The target of the next series is T1, Topo I (Homo sapiens, UniProt P11387).
T1 sequence (P11387 1-765): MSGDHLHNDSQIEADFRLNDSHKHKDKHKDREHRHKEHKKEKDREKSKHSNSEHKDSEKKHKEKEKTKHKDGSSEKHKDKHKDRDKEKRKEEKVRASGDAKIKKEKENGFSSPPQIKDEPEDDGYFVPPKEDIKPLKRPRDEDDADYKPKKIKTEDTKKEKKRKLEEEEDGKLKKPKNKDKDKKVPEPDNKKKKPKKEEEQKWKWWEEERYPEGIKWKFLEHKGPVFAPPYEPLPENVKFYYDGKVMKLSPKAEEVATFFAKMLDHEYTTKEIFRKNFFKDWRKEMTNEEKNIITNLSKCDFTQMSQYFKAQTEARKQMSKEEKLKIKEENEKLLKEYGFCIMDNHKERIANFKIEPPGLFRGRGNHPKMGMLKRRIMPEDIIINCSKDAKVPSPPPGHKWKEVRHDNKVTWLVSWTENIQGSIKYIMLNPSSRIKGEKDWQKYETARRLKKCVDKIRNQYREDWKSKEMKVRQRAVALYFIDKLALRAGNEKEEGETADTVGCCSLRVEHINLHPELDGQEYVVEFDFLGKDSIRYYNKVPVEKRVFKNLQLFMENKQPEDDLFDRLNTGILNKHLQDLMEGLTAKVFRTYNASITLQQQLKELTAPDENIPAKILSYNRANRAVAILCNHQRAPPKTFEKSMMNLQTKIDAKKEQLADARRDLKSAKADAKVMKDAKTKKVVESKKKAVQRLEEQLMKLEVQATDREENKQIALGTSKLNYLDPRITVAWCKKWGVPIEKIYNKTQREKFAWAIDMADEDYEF
Nature of the series: Topo I activity assay, nuclear extracts of treated A-549 cells, supercoiled DNA. The series is classed as cell-based. Also noted: Nuclear extracts from 9a-treated A-549 cells were incubated with supercoiled DNA (for Topo I); endogenous in cells; host or cells: A-549. How it is done:
First, we determined the effect of 9a on cell cycle distribution using flow cytometry analysis. […] Because it has been shown that 1-Topo I-DNA covalent complexes enhance the transcription-dependent degradation of Topo I via a 26S proteasome pathway,^32 the effects of 9a on the expression levels of Topo I and Topo II were investigated.
Topo I activity test was performed using an assay kit (TopoGEN) according to the manufacturer's instructions. Nuclear extracts from 9a-treated A-549 cells were incubated with supercoiled DNA (for Topo I) or catenated kDNA (for Topo II) for 30 min at 37° C. Reaction mixture was separated by is 1% agarose gel in 1×TAE buffer. The gel was stained with ethidium bromide and photographed using Gel Doc XR (Bio-Rad).

Series [2] is classed as in vivo, BALB/c mice. The procedure:
Acute toxicity of 9a in mouse was evaluated pathologically. Sixty 8-week-old male BALB/c mice were randomized into six groups (n=10) to receive 0 (vehicle only), 30, 100, 200, or 300 mg/kg of 9a i.p. on day zero. One group was kept without treatment as a normal control. […] Histopathological evaluations included 1) glycogen deposition, inflammatory cell infiltration, and focal necrosis in liver, 2) regeneration of renal tubule, inflammatory cell infiltration, and chronic progressive nephropathy in kidney, and 3) inflammatory cell infiltration and adenoma in lung. […] Thus, the animals apparently tolerated treatment with 300 mg/kg of 9a, portending an acceptable safety profile.
Sixty 8-week-old male BALB/c mice (National Laboratory Animal Center, Taipei, Taiwan) were used to evaluate single-dose toxicity. Mice were randomly divided into six groups (n=10) and received a single i.p. injection of 9a at 0 (vehicle), 30, 100, 200 or 300 mg/kg on day 0. One group was untreated as normal control. Body weight was measured every three days for fifteen days. On the end of experimental period, all animals were euthanized by CO2 and tissues from liver, lung, kidney and spleen were weighted (data not shown). Tissues were fixed with 10% formalin and embedded in paraffin. Sections 3-5 μm in thickness were prepared for histopathological examination. Hematoxylin and eosin (H&E) stained paraffin sections were evaluated histopathologically according to the guideline described by Shackelford et al.^36 and graded the symptomatic lesions. […] Statistically significant results (P<0.05) were is shown. This study was approved by the Institutional Animal Care and Use Committee (IACUC) of China Medical University (Taichung, Taiwan), and was performed according to the institutional guidelines.

For the next series, the system named is A-549 cells. Kind of series: Apoptosis assessment, Annexin V-FITC/propidium iodide double staining. In kind it is cell-based, human. How it is done:
Initially, we investigated morphological cellular changes. […] PARP, a hallmark of apoptosis, was also activated by 9a.
Apoptosis was detected by Annexin V-FITC/propidium iodide double staining kit (BD Biosciences). A-549 cells were treated with 9a for 24 h or 48 h. Cells were harvested by trypsinization and washed with ice-cold PBS. Cells were labeled with annexin V-FITC and propidium iodide for 15 min at room temperature in the dark. Labeled cells were analyzed by FACSCalibur flow cytometer (Becton Dickinson).

Consider `CC[C@@]1(OC(=O)CNC(Cc2ccc(OC)cc2)=NS(=O)(=O)c2ccc(C)cc2)C(=O)OCc2c1cc1n(c2=O)Cc2cc3ccccc3nc2-1` [Compound 9a], for which, in series [1], half-maximal inhibition (IC50) was put at 50 ± 3.8 nM. Also, the “Topo I-mediated relaxation of supercoiled DNA” value on Topo I was “inhibited the relaxation of supercoiled DNA”. Further, the overt toxicity result in series [2] (300 mg/kg i.p.) is “no overt toxicity”. The “acute toxicity (anaphylactic, allergic responses, body weight loss)” value in series [2] (single i.p. 30, 100, 200 or 300 mg/kg, male BALB/c mice) is given as “no anaphylactic responses, allergic reactions, or significant body weight loss”. Also, the “histopathological evaluation of liver, spleen, kidney and lung” value in series [2] (single i.p. up to 300 mg/kg, male BALB/c mice) was “no adverse effects”. Further, the “annexin V positive cell population” value was 3.7% in the series with A-549 cells (A-549, 24 h, vehicle […]) and 34.1% in the series with A-549 cells (A-549, 48 h, vehicle 2.0%).

The values above are taken from patent US9718835B2 (China Medical University Hospital, priority 2013, dated 2017).
